Laboratory results published in patent publication US20210069295A1, “GALECTINS CONTROL MTOR IN RESPONSE TO ENDOMEMBRANE DAMAGE AND PROVIDE A MECHANISM AND TARGET FOR THE TREATMENT OF AUTOPHAGY-RELATED DISEASES” (STC. UNM, priority 2017, published 2021).
Peptide text beside a SMILES is read from it.

System: Gal8 and Gal9
Assay: Galectin puncta formation by high-content microscopy in HeLa cells
Format: cell-based
Conditions: HeLa cells overexpressing GFP-Gal8 or GFP-Gal9, 100 μM, 1 h full medium
Protocol: (A) Analysis of the puncta formation of galectins in response to GPN. HeLa cells overexpressing YFP-fused with the indicated galectins were treated with 100 μM GPN or without (Ctrl) in full medium for 1 h and galectin puncta were quantified by HC. […] White masks, algorithm defined cell boundaries (primary objects); green masks, computer-identified galectins puncta (target objects). Data, means±SEM, n≥3 independent experiments (500 primary objects counted per well; ≥5 wells/sample per each experiment); *p<0.05, **p<0.01, † p≥0.05, ANOVA. (B) Immunoprecipitation analysis of the interactions between galectins and mTOR or RagA GTPase. HEK293T cells overexpressing FLAG-tagged galectins were subjected to anti-FLAG immunoprecipitation followed by immunoblotting for endogenous mTOR or RagA. (C) Immunoprecipitation analysis of interactions between Gal8 and mTOR protein complexes in response to GPN treatment. […] Biotinylated proteins from HEK293T cell expressing APEX2-vector or APEX2-Gal8, after GPN and biotin phenol (BP) treatment were affinity-enriched by binding to streptavidin-beads, and samples were analyzed by immunoblotting analysis for endogenous RagA, p14, mTOR or Raptor. […]
(A) HC analysis of the puncta of galectins in response to chloroquine, Bafilomycin A1 and GPN. HeLa cells overexpressing GFP-Gal8 or GFP-Gal9 were treated with 100 μM chloroquine (CQ), […] (BAF) or 100 μM GPN in full medium for 1 h, and the puncta of GFP-Gal8 or GFP-Gal9 were quantified by HC. […] Data, means±SEM, n≥3 independent experiments (500 primary objects counted per well; ≥5 wells/sample per each experiment), † p≥0.05, **p<0.01, ANOVA. […] HeLa cells expressing GFP-Gal8 were treated with 100 μM GPN in full medium for 1 h, and the overlap between GFP-Gal8 and LAMP2 were quantified by HC. […] Data, means±SEM, n≥3 independent experiments (500 primary objects counted per well; ≥5 wells/sample per each experiment), **p<0.01, ANOVA. […]

In the case of `NCC(=O)N[C@@H](Cc1ccccc1)C(=O)Nc1ccc2ccccc2c1` [GPN, glycyl-L-phenylalanine 2-naphththylamide] (HELM PEPTIDE1{G.F.[c1ccc2cc(N[*:1])ccc2c1]}$$$$V2.0), the “Gal8 and Gal9 puncta formation” value is reported as “formed puncta”.
